6 compounds from patent publication US9149572B2, “Chondroitin sulfate having decreased molecular weight and use thereof” (Seikagaku Corporation, priority 2007, dated 2015) can be followed below.

One test has as its system AGE production. Briefly: Inhibition of AGE production (glucose and bovine serum albumin, fluorescence), Example 5. Format: biochemical. The settings on record: positive control substance 1 mM; 37° C., 4 weeks. The procedure: An experiment was performed according to the method of T. Kiho et al. (Biosci Biotechnol Biochem, 68: 200, 2004). To be more specific, a test substance was dissolved in 0.1 M phosphate buffer (pH 7.4) containing 500 mM glucose and 10 mg/mL bovine serum albumin at a concentration of 0.1% (w/v), and the resulting solution was incubated at 37° C. for 4 weeks. After 4 weeks, a value of fluorescence emitted by AGE was measured at an excitation light wavelength of 355 nm and a measurement wavelength of 460 nm, and the amount of produced AGE was determined, and then, an inhibition rate of AGE production was calculated according to the following calculation equation. Inhibition rate of AGE production(%)=[1−(Fluorescence value when test substance was added)/(Fluorescence value when test substance was not added)]×100 [Equation 1] (Experimental Results)
Incidentally, as the test substance, the following substances were used. Further, as a positive control substance, 1 mM aminoguanidine (a known AGE production inhibitor) was used.

Test [1] relates to HL-60 cells differentiated into neutrophil-like cells. Briefly: ROS scavenging in phorbol ester-stimulated HL-60 cells (L-012 luminescence), Example 6. Format: cell-based. The procedure: An experiment was performed according to the method of Olga T. et al. (Toxicological Science, 76: 376, 2003). To be more specific, HL-60 cells differentiated into neutrophil-like cells were suspended in a culture medium at 2×10^6 cells/mL, and the resulting cell suspension was added to a 96-well plate at 50 μL/well. Then, a test substance was added to the well at 50 μL/well (final concentration: 0.03%, 0.1%, and 0.3% (w/v)). Further, the culture medium was added to the well as a negative control at 50 μL/well. […] As a background, the plate to which the culture medium was added in place of the phorbol ester was incubated in the same manner. After completion of the incubation, a luminescence intensity (CPS) was measured using a multilabel counter, ARVOSX 1420 (manufactured by PerkinElmer) and an ROS scavenging rate was calculated according to the following calculation equation. […] Incidentally, as the test substance, the following substances were used. Further, as a positive control substance, 20 nM staurosporine (a known phorbol ester signal inhibitor) was used.

Test [2] deals with peritoneum (ultrafiltration capacity). Briefly: Peritoneal equilibration test after repeated peritoneal dialysis fluid administration (water removal rate), Example 3. It is filed as in vivo, Wistar male rat. The settings on record: 0.1% (w/v) in Midpeliq 250, into the peritoneal cavity once daily 15 mL/body for 7 days; vs control group; FIG. 1; CSC 10 kDa by method of Example 2. How it is done:
To a Wistar male rat at 8 weeks of age, Midpeliq 250 (trade name, a peritoneal dialysis fluid containing glucose at a concentration of 2.5% (w/v) manufactured by Terumo Corporation) in which a test substance was dissolved at a concentration of 0.1% (w/v) was repetitively administered into the peritoneal cavity once daily at 15 mL/body for 7 days under ether anesthesia. To a control group (Control), Midpeliq 250 was administered in the same manner. On the next day after the final administration, a peritoneal equilibration test was performed, and the peritoneal function was evaluated. To be more specific, Midpeliq 250 was injected into the peritoneal cavity at 60 mL/kg, and 4 hours thereafter, the fluid remaining in the peritoneal cavity was recovered. The amount of the recovered fluid was measured, and the ultrafiltration capacity (water removal rate) of the peritoneum was evaluated.

[3] abbreviates: Table 4, test substance 0.1% (w/v), CSC 10 kDa by method of Example 1.

With `N=C(N)NN` [Aminoguanidine, aminoguanidine], in the test with AGE production, the “Inhibition rate of AGE production” value is on record as 52.7%.

`CN[C@@H]1C[C@H]2O[C@@](C)([C@@H]1OC)n1c3ccccc3c3c4c(c5c6ccccc6n2c5c31)C(=O)NC4` [Staurosporine, staurosporine, reference compound]: the ROS scavenging rate in test [1] (Table 4, positive control substance 20 nM) is on record as 97.4%; in test [1] (Table 5, positive control substance 20 nM), 98.1%.

In test [1] (setting [3]), “Chondroitin sulfate A, sodium salt (whale cartilage), SG [CSA 30 kDa]” returned an ROS scavenging rate of 33.4%.

In the case of “Chondroitin sulfate C, sodium salt (shark cartilage), SG [CSC 30 kDa]”, the ROS scavenging rate in test [1] (setting [3]) is 5.0%. Moreover, the “effect of protecting the peritoneum (action of inhibiting a decrease in water removal rate)” value in test [2] is recorded as “statistically significant effect was not observed”.

In test [1] (setting [3]), “Chondroitin sulfate E, sodium salt (squid cartilage) [CSE 75 kDa]” showed an ROS scavenging rate of 21.9%.

With Chondroitin, sodium salt [Ch 5 kDa], the ROS scavenging rate in test [1] (setting [3]) turned out to be 13.6%.
